Assay results: PubChem BioAssay AID1918934 (Molecular Pharmacology Branch, DTP, NCI, 2023)
pIC50: −log10 of the molar value.

System: 292921-168-R-J2-PDC complex spheroid viability
Assay: Anticancer human tumor 292921-168-R-J2-PDC patient-derived pancreatic carcinoma cell line growth inhibition
Conditions: for pIC50: curve of first compound; for viability, T/C: stronger effect = lower value
Procedure, shortened: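 Multicellular complex spheroids of tumor cells with human endothelial cells (HUVEC) and mesenchymal stem cells; the LSD1 inhibitor iadademstat was combined with standard-of-care or investigational agents. Top concentration at or near clinical Cmax, half-log dilutions; final DMSO ≤0.25%.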
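Further: seven day compound exposure before luminescent viability read.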
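Wherever viability, T/C is given: 100% = DMSO vehicle control wells.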

For `CCN(c1cc(-c2ccc(CN3CCOCC3)cc2)cc(C(=O)NCc2c(C)cc(C)[nH]c2=O)c1C)C1CCOCC1` + NC1CCC(NC2CC2c2ccccc2)CC1, the pIC50 (second compound 0.1 µM) was 6.02, the pIC50 (second compound 0.316 µM) was 6.16 and the pIC50 (second compound 1 µM) was 6.19. For the same compound, the pIC50 (second compound 3.16 µM) was 6.19, the pIC50 (second compound 10 µM) was 6.34 and the viability, T/C (second compound 0.1 µM, first compound 0.00949 µM) was 67.3%. The viability, T/C (second compound 0.1 µM, first compound 0.03 µM) was 69.7%, the viability, T/C (second compound 0.1 µM, first compound 0.0949 µM) was 76.6% and the viability, T/C (second compound 0.1 µM, first compound 0.3 µM) was 63.5%. The viability, T/C (second compound 0.1 µM, first compound 0.949 µM) was 50.6%, the viability, T/C (second compound 0.1 µM, first compound 3 µM) was 21.3% and the viability, T/C (second compound 0.316 µM, first compound 0.00949 µM) was 77.2%. The viability, T/C (second compound 0.316 µM, first compound 0.03 µM) was 71.7%, the viability, T/C (second compound 0.316 µM, first compound 0.0949 µM) was 66.6% and the viability, T/C (second compound 0.316 µM, first compound 0.3 µM) was 66.8%. For the same compound, the viability, T/C (second compound 0.316 µM, first compound 0.949 µM) was 44%, the viability, T/C (second compound 0.316 µM, first compound 3 µM) was 18.4% and the viability, T/C (second compound 1 µM, first compound 0.00949 µM) was 60%. The viability, T/C (second compound 1 µM, first compound 0.03 µM) was 61.8%, the viability, T/C (second compound 1 µM, first compound 0.0949 µM) was 67.6% and the viability, T/C (second compound 1 µM, first compound 0.3 µM) was 61%. For the same compound, the viability, T/C (second compound 1 µM, first compound 0.949 µM) was 44.3%, the viability, T/C (second compound 1 µM, first compound 3 µM) was 17.7% and the viability, T/C (second compound 3.16 µM, first compound 0.00949 µM) was 59.8%. For the same compound, the viability, T/C (second compound 3.16 µM, first compound 0.03 µM) was 68.4%, the viability, T/C (second compound 3.16 µM, first compound 0.0949 µM) was 68.1% and the viability, T/C (second compound 3.16 µM, first compound 0.3 µM) was 57.6%. The viability, T/C (second compound 3.16 µM, first compound 0.949 µM) was 45.6%, the viability, T/C (second compound 3.16 µM, first compound 3 µM) was 18.5% and the viability, T/C (second compound 10 µM, first compound 0.00949 µM) was 62.8%. It also gave a viability, T/C (second compound 10 µM, first compound 0.03 µM) of 64.3%, a viability, T/C (second compound 10 µM, first compound 0.0949 µM) of 63.4% and a viability, T/C (second compound 10 µM, first compound 0.3 µM) of 56.8%. It also gave a viability, T/C (second compound 10 µM, first compound 0.949 µM) of 37.4% and a viability, T/C (second compound 10 µM, first compound 3 µM) of 15.8%.
For `CC1(C)CCC(CN2CCN(c3ccc(C(=O)NS(=O)(=O)c4ccc(NCC5CCOCC5)c([N+](=O)[O-])c4)c(Oc4cnc5[nH]ccc5c4)c3)CC2)=C(c2ccc(Cl)cc2)C1` + NC1CC1c1ccc(-c2cccc(O)c2)cc1, the pIC50 (second compound 0.1 µM) was 5.73, the pIC50 (second compound 0.316 µM) was 5.76 and the pIC50 (second compound 1 µM) was 5.76. For the same compound, the pIC50 (second compound 3.16 µM) was 5.86, the pIC50 (second compound 10 µM) was 6.02 and the viability, T/C (second compound 0.1 µM, first compound 0.0316 µM) was 75.5%. It also gave a viability, T/C (second compound 0.1 µM, first compound 0.1 µM) of 92.6%, a viability, T/C (second compound 0.1 µM, first compound 0.316 µM) of 81.9% and a viability, T/C (second compound 0.1 µM, first compound 1 µM) of 82.8%. It also gave a viability, T/C (second compound 0.1 µM, first compound 3.16 µM) of 22.1%, a viability, T/C (second compound 0.1 µM, first compound 10 µM) of 0.22% and a viability, T/C (second compound 0.316 µM, first compound 0.0316 µM) of 72.5%. It also gave a viability, T/C (second compound 0.316 µM, first compound 0.1 µM) of 79.7%, a viability, T/C (second compound 0.316 µM, first compound 0.316 µM) of 74.5% and a viability, T/C (second compound 0.316 µM, first compound 1 µM) of 78.2%. The viability, T/C (second compound 0.316 µM, first compound 3.16 µM) was 22.5%, the viability, T/C (second compound 0.316 µM, first compound 10 µM) was 0.21% and the viability, T/C (second compound 1 µM, first compound 0.0316 µM) was 67.8%. It also gave a viability, T/C (second compound 1 µM, first compound 0.1 µM) of 68.3%, a viability, T/C (second compound 1 µM, first compound 0.316 µM) of 71.7% and a viability, T/C (second compound 1 µM, first compound 1 µM) of 78%. It also gave a viability, T/C (second compound 1 µM, first compound 3.16 µM) of 27.1%, a viability, T/C (second compound 1 µM, first compound 10 µM) of 0.27% and a viability, T/C (second compound 3.16 µM, first compound 0.0316 µM) of 62.4%. For the same compound, the viability, T/C (second compound 3.16 µM, first compound 0.1 µM) was 59%, the viability, T/C (second compound 3.16 µM, first compound 0.316 µM) was 58.3% and the viability, T/C (second compound 3.16 µM, first compound 1 µM) was 65.6%. For the same compound, the viability, T/C (second compound 3.16 µM, first compound 3.16 µM) was 21.6%, the viability, T/C (second compound 3.16 µM, first compound 10 µM) was 0.19% and the viability, T/C (second compound 10 µM, first compound 0.0316 µM) was 49.8%. The viability, T/C (second compound 10 µM, first compound 0.1 µM) was 58.4%, the viability, T/C (second compound 10 µM, first compound 0.316 µM) was 52.4% and the viability, T/C (second compound 10 µM, first compound 1 µM) was 49.9%. It also gave a viability, T/C (second compound 10 µM, first compound 3.16 µM) of 12.1% and a viability, T/C (second compound 10 µM, first compound 10 µM) of 0.19%.
